From patent US11149031B2, “Substituted N-(3-fluoropropyl)-pyrrolidine compounds, processes for their preparation and therapeutic uses thereof” (SANOFI, priority 2016, dated 2021)
Like-named read-outs stand apart in the source and are kept apart here.

Legend:
[1] = target: His6-ERα298-554 Y537S mutant (ERα ligand-binding domain) (Homo sapiens (Human), UniProt P03372, Y537S); assay: Test A: biochemical antagonist activity, LanthaScreen TR-FRET ERα coactivator assay, Y537S mutant; conditions: read-out: Antagonism Y537S IC50
Outline: (§1)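 His6-ERα LBD (aa 298–554), 0.5 nM, with Tb-anti-His6 antibody, 250 nM PGC1a peptide and 3 nM (or 10 nM) estradiol in pH 7.4 potassium phosphate/DTT buffer; incubated with compound overnight at room temperature. IC50 from 4-parameter logistic fit of TR-FRET 520:495 nm ratio.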

[2] = system: MCF7 cells expressing mutant estrogen receptor Asp 538 Gly; assay: Test B: cell proliferation/viability assay (CellTiter-Glo) on MCF7 Asp 538 Gly mutant; type: cell-based; conditions: Homo sapiens, MCF7, 168 h, MCF7 cells expressing ER Asp 538 Gly mutant, 7 days of compound exposure, read-out: proliferation MCF7 D538G IC50
Outline: (§2)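 Seven-day compound exposure, 9 concentrations from 3 to 0.000001 μM, in phenol red-free medium with 5% charcoal-stripped serum. ER Tyr537Ser and Asp538Gly lines derive from transfected MCF7 selected to grow without estradiol. Viability from CellTiter-Glo luminescence, background-corrected, as percent of untreated.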

[3] = target: His6-ERα298-554 WT (ERα ligand-binding domain) (Homo sapiens (Human), UniProt P03372); assay: Test A: biochemical antagonist activity, LanthaScreen TR-FRET ERα coactivator assay, WT; conditions: read-out: Antagonism WT IC50
Outline: as §1

[4] = system: MCF7 cells (breast tumor cells) WT; assay: Test B: cell proliferation/viability assay (CellTiter-Glo) on MCF7 WT; type: cell-based; conditions: Homo sapiens, MCF7, 168 h, 7 days of compound exposure
Outline: as §2

[5] = target: ERα in MCF7 cells (Homo sapiens (Human), UniProt P03372); assay: Test C: estrogen receptor degradation activity, ERα in cell western assay in MCF7 cells; type: cell-based; conditions: for DC50: 4 hours post compound addition, ERα in cell western, read-out: Degradation IC50; for % Degradation at 3 μM: 4 hours, relative to fulvestrant
Outline: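 In-cell western: ERα level (green) against DNA stain Syto-64 (red) by integrated intensity. MCF7 cells in hormone-depleted medium exposed 4 h to compound at 3-0.000018 μM final (1:5 series); fulvestrant 0.1 μM as positive control.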

[6] = system: MCF7 cells expressing mutant estrogen receptor Tyr 537 Ser; assay: Test B: cell proliferation/viability assay (CellTiter-Glo) on MCF7 Tyr 537 Ser mutant; type: cell-based; conditions: Homo sapiens, MCF7, 168 h, MCF7 cells expressing ER Tyr 537 Ser mutant, 7 days of compound exposure, read-out: proliferation MCF7 Y537S IC50
Outline: as §2

[7] = target: His6-ERα298-554 D538G mutant (ERα ligand-binding domain) (Homo sapiens (Human), UniProt P03372, D538G); assay: Test A: biochemical antagonist activity, LanthaScreen TR-FRET ERα coactivator assay, D538G mutant; conditions: read-out: Antagonism D538G IC50
Outline: as §1

[8] = asterisk (*): protocol using 10 nM estradiol

Sequence of His6-ERα298-554 WT (ERα ligand-binding domain) (P03372 298-554): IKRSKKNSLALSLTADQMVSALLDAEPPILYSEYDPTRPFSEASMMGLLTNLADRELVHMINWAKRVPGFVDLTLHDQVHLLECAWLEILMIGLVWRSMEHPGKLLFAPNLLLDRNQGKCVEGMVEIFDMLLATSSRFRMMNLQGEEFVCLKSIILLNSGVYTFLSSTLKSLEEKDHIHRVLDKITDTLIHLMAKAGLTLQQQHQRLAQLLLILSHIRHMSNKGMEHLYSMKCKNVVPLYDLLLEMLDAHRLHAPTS
Sequence of His6-ERα298-554 D538G mutant (ERα ligand-binding domain) (P03372 298-554 D538G): as the sequence (P03372 298-554) above, with D241G counted along it
Sequence of His6-ERα298-554 Y537S mutant (ERα ligand-binding domain) (P03372 298-554 Y537S): as the sequence (P03372 298-554) above, with Y240S counted along it
Sequence of ERα in MCF7 cells (P03372 whole entry): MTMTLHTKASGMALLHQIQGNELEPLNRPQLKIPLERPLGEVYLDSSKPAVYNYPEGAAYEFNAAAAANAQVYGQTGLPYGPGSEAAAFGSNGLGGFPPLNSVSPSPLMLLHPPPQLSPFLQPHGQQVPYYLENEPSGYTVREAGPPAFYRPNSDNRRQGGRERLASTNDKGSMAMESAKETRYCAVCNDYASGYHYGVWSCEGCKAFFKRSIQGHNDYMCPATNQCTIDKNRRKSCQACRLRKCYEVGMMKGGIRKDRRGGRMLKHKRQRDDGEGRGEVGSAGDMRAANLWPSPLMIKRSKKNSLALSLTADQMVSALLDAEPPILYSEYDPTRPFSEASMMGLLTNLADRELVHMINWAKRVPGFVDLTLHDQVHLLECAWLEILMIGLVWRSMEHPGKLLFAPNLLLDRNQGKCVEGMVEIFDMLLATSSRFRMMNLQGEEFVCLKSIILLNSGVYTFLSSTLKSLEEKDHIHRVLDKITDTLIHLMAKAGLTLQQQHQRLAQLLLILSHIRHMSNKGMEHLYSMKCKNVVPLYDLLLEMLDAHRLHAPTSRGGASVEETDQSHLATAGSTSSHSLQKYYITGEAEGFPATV

Structure (SMILES) | IC50 [1, 8] | IC50 [2] | IC50 [3, 8] | IC50 [4] | DC50 [5] | % Degradation at 3 μM [5] | IC50 [6] | IC50 [7, 8] | IC50 ([1]; protocol with 3 nM estradiol) | IC50 ([3]; protocol with 3 nM estradiol) | IC50 ([7]; protocol with 3 nM estradiol)
NS(=O)(=O)c1ccc(C2=C(c3ccc(O[C@H]4CCN(CCCF)C4)cc3)c3ccc(O)cc3SC2)cc1 [Example 42, 4-[4-[4-[(3S)-1-(3-fluoropropyl)pyrrolidin-3-yl]oxyphenyl]-7-hydroxy-2H-thiochromen-3-yl]benzenesulfonamide] | > 4000 nM | 31 nM | 674 nM | 46 nM | 11 nM | 89% | 809 nM | > 4000 nM | – | – | –
Oc1ccc2c(c1)CCCC(c1ccc(SC(F)(F)F)cc1)=C2c1ccc(N[C@H]2CCN(CCCF)C2)cc1 [Example 90, 5-[4-[[(3S)-1-(3-fluoropropyl)pyrrolidin-3-yl]amino]phenyl]-6-[4-(trifluoromethylsulfanyl)phenyl]-8,9-dihydro-7H-benzo[7]annulen-2-ol] | 165 nM | 0.5 nM | 12 nM | 0.3 nM | 0.4 nM | 91% | 4 nM | 293 nM | – | – | –
CCOc1ccc(C2=C(c3ccc(O[C@H]4CCN(CCCF)C4)nc3)c3ccc(O)c(F)c3CCC2)c(F)n1 [Example 252, 6-(6-ethoxy-2-fluoro-3-pyridyl)-1-fluoro-5-[6-[(3S)-1-(3-fluoropropyl)pyrrolidin-3-yl]oxy-3-pyridyl]-8,9-dihydro-7H-benzo[7]annulen-2-ol] | 9 nM | 0.4 nM | 0.7 nM | 0.6 nM | 0.2 nM | 86% | 9 nM | 8 nM | – | – | –
Cc1ccc(C2=C(c3ccc(O[C@H]4CCN(CCCF)C4)cc3)c3ccc(O)cc3SCC2)c(F)n1 [Example 192, 4-(2-fluoro-6-methyl-3-pyridyl)-5-[4-[(3S)-1-(3-fluoropropyl)pyrrolidin-3-yl]oxyphenyl]-2,3-dihydro-1-benzothiepin-8-ol] | 109 nM | 0.9 nM | 9 nM | 0.3 nM | 0.4 nM | 91% | 5 nM | 205 nM | – | – | –
Oc1ccc2c(c1F)OCCC(c1ccc3[nH]ccc3c1)=C2c1ccc(O[C@H]2CCN(CCCF)C2)cc1 [Example 113, 9-fluoro-5-[4-[(3S)-1-(3-fluoropropyl)pyrrolidin-3-yl]oxyphenyl]-4-(1H-indol-5-yl)-2,3-dihydro-1-benzoxepin-8-ol] | – | 14 nM | – | 5 nM | 0.7 nM | 80% | 31 nM | – | 19 nM | 6 nM | 32 nM
CCOc1ccc(C2=C(c3ccc(O[C@H]4CCN(CCCF)C4)nc3)c3ccc(O)cc3CCC2)c(F)n1 [Example 240, 6-(6-ethoxy-2-fluoro-3-pyridyl)-5-[6-[(3S)-1-(3-fluoropropyl)pyrrolidin-3-yl]oxy-3-pyridyl]-8,9-dihydro-7H-benzo[7]annulen-2-ol] | 4 nM | 0.5 nM | 6 nM | 0.3 nM | 0.3 nM | 89% | 3 nM | 6 nM | – | – | –
Cc1ccc(C2=C(c3ccc(O[C@H]4CCN(CCCF)C4)cc3)c3ccc(O)cc3SC2)c(Cl)n1 [Example 56, 3-(2-chloro-6-methyl-3-pyridyl)-4-[4-[(3S)-1-(3-fluoropropyl)pyrrolidin-3-yl]oxyphenyl]-2H-thiochromen-7-ol] | 358 nM | 0.7 nM | 37 nM | 0.6 nM | 0.2 nM | 86% | 14 nM | 721 nM | – | – | –
Oc1ccc2c(c1F)CCCC(c1ccc(Cl)cc1Cl)=C2c1ccc(O[C@H]2CCN(CCCF)C2)nc1 [Example 245, 6-(2,4-dichlorophenyl)-1-fluoro-5-[6-[(3S)-1-(3-fluoropropyl)pyrrolidin-3-yl]oxy-3-pyridyl]-8,9-dihydro-7H-benzo[7]annulen-2-ol] | – | 0.1 nM | – | 0.3 nM | 0.5 nM | 87% | 3 nM | – | 3 nM | 0.4 nM | 4 nM
Cc1ccc(C2=C(c3ccc(O[C@H]4CCN(CCCF)C4)nc3)c3ccc(O)cc3CCC2)c(F)c1 [Example 237, 6-(2-fluoro-4-methyl-phenyl)-5-[6-[(3S)-1-(3-fluoropropyl)pyrrolidin-3-yl]oxy-3-pyridyl]-8,9-dihydro-7H-benzo[7]annulen-2-ol] | 5 nM | 0.7 nM | 0.6 nM | 0.3 nM | 0.2 nM | 92% | 5 nM | 7 nM | – | – | –
Oc1ccc2c(c1)SCC(c1ccc3c(c1)OC(F)(F)O3)=C2c1ccc(O[C@H]2CCN(CCCF)C2)cc1 [Example 31, 3-(2,2-difluoro-1,3-benzodioxol-5-yl)-4-[4-[(3S)-1-(3-fluoropropyl)pyrrolidin-3-yl]oxyphenyl]-2H-thiochromen-7-ol] | – | 1 nM | – | 0.4 nM | 0.7 nM | 86% | 6 nM | – | 59 nM | 5 nM | 101 nM
Oc1ccc(C2Sc3cc(O)ccc3OC2c2ccc(O[C@H]3CCN(CCCF)C3)cc2)cc1 (stereo partly drawn) [Example 258, 2-[4-[(3S)-1-(3-fluoropropyl)pyrrolidin-3-yl]oxyphenyl]-3-(4-hydroxyphenyl)-2,3-dihydro-1,4-benzoxathiin-6-ol] | 2420 nM | 1 nM | 203 nM | 6 nM | 5 nM | 77% | 17 nM | > 4000 nM | – | – | –
Nc1ccc(C2=C(c3ccc(O[C@H]4CCN(CCCF)C4)cc3)c3ccc(O)cc3SCC2)c(F)n1 [Example 223, 4-(6-amino-2-fluoro-3-pyridyl)-5-[4-[(3S)-1-(3-fluoropropyl)pyrrolidin-3-yl]oxyphenyl]-2,3-dihydro-1-benzothiepin-8-ol] | 24 nM | 0.2 nM | 2 nM | 1 nM | 0.2 nM | 85% | 0.1 nM | 42 nM | – | – | –
CCOc1ccc(C2=C(c3ccc(O[C@H]4CCN(CCCF)C4)nc3)c3ccc(O)cc3SC2)c(F)n1 [Example 79, 3-(6-ethoxy-2-fluoro-3-pyridyl)-4-[6-[(3S)-1-(3-fluoropropyl)pyrrolidin-3-yl]oxy-3-pyridyl]-2H-thiochromen-7-ol] | 5 nM | 5 nM | 0.5 nM | 0.3 nM | 0.2 nM | 89% | 0.8 nM | 6 nM | – | – | –
Oc1ccc2c(c1F)CCCC(c1ccc(OC(F)F)c(F)c1)=C2c1ccc(O[C@H]2CCN(CCCF)C2)nc1 [Example 249, 6-[4-(difluoromethoxy)-3-fluoro-phenyl]-1-fluoro-5-[6-[(3S)-1-(3-fluoropropyl)pyrrolidin-3-yl]oxy-3-pyridyl]-8,9-dihydro-7H-benzo[7]annulen-2-ol] | 14 nM | 0.6 nM | 1 nM | 0.3 nM | 0.3 nM | 87% | 4 nM | 24 nM | – | – | –
Oc1cc2c(cc1Cl)C(c1ccc(O[C@H]3CCN(CCCF)C3)cc1)=C(c1ccc3[nH]ccc3c1)CCO2 [Example 144, 7-chloro-5-[4-[(3S)-1-(3-fluoropropyl)pyrrolidin-3-yl]oxyphenyl]-4-(1H-indol-5-yl)-2,3-dihydro-1-benzoxepin-8-ol] | – | 64 nM | – | 38 nM | 18 nM | 75% | 653 nM | – | 4000 nM | 528 nM | 4000 nM
CC(C)(C)c1ccc(C2=C(c3ccc(O[C@H]4CCN(CCCF)C4)cc3)c3ccc(O)cc3SC2)c(F)n1 [Example 75, 3-(6-tert-butyl-2-fluoro-3-pyridyl)-4-[4-[(3S)-1-(3-fluoropropyl)pyrrolidin-3-yl]oxyphenyl]-2H-thiochromen-7-ol] | > 4000 nM | 74 nM | 2490 nM | 63 nM | 27 nM | 92% | > 999 nM | > 4000 nM | – | – | –
